# In the supplement of paper PMC3974653:
# Where a name gives a salt, the structure may show the parent alone.
# Test system: MTT (mouse pheochromocytoma)
# Assay: IC50 of cell viability (ATP content)
# Settings: (24 or 48 h)
# How it was run: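 MTT mouse pheochromocytoma cells were seeded into white 1536-well plates at 5 µl per well from a 200,000 cells/ml suspension in DMEM with 5% FBS and 1% horse serum, then cultured overnight at 37°C, 5% CO2. A pintool added 23 nl of library compound in DMSO at 8 concentrations (final 0.5 nM to 46 µM) for 24 or 48 hrs, and CellTiter-Glo ATP luminescence was read after 15 minutes. Signals were scaled so that positive-control wells equalled 100% and DMSO wells 0%. IC50 values were derived by fitting a four-parameter logistic curve.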
row,Compound,IC50 of cell viability [µM]
1,O.O.O.[Na+].[Na+].O[Hg]C1=C2OC/3=C/C(=O)/C(=C\C3=C(\C2=CC(=C1[O-])Br)C4=C(C=CC=C4)C([O-])=O)Br [Merbromin],> 46
2,C[C@H](O)[C@H]1[C@@H]2[C@@H](C)\C(=C(/N2C1=O)C(O)=O)S[C@@H]3CN[C@H](C3)C(=O)N(C)C [Meropenem],> 46
3,Nc1ccc(O)c(C(=O)O)c1 [Mesalamine],> 46
4,COc1cc(CCN)cc(OC)c1OC [Mescaline],> 46
5,C[S+](=O)([O-])c1ccc(C(=O)C2C(=O)CCCC2=O)c([N+](=O)[O-])c1 [Mesotrione],> 46
6,CC12CCC(=O)CC1CCC1C2CCC2(C)C1CCC2(C)O (stereo not drawn) [Mestanolone],> 46
7,C[C@]12C=CC(=O)C=C1CC[C@@H]1[C@@H]2CC[C@@]2(C)[C@H]1CC[C@]2(C)O [Metandienona],> 46
8,"CC(C)NC[C@H](O)c1cc(O)cc(O)c1 [Metaproterenol sulfate, orciprenaline sulfate]",> 46
9,C[C@H](N)[C@H](O)c1cccc(O)c1.O=C(O)[C@@H](O)[C@@H](O)C(=O)O.O=C(O)[C@@H](O)[C@@H](O)C(=O)O [Metaraminol bitartrate],> 46
10,O=C(NNCNNC(=O)c1ccncc1)c1ccncc1 [Metazida],> 46
11,CN(C)C(=N)NC(=N)N [Metformin hydrochloride],> 46
12,CC(=O)O[C@@H](C)C[N+](C)(C)C [Methacholine chloride],> 46
13,CN(C)[C@H]\1[C@@H]2[C@@H](O)[C@@H]\3C(=C)C4=C(C(=CC=C4)O)C(=O)C3=C(\O)[C@@]2(O)C(=O)\C(=C1O)C(N)=O [Methacycline hydrochloride],> 46
14,CO [Methanol],> 46
15,CC[N+](C)(CC)CCOC(=O)C1c2ccccc2Oc2ccccc21 [Methantheline bromide],> 46
16,CC1=CC=CC=C1N2\C(=N/C3=CC=CC=C3C2=O)C [Methaqualone],> 46
17,CC(=O)/N=c1/sc([S+](N)(=O)[O-])nn1C [Methazolamide],> 46
18,COC/1=N/N(CS[P](=S)(OC)OC)C(=O)S1 [Methidathion],> 46
19,Cn1ccnc1S [Methimazole],> 46
20,COc1ccccc1OC[C@H](O)COC(N)=O [Methocarbamol],> 46
21,COC(C)(C)CCCC(C)C/C=C/C(C)=C/C(=O)OC(C)C (stereo not drawn) [Methoprene],> 46
22,COc1ccc2c(c1)N(C[C@@H](C)CN(C)C)c1ccccc1S2 [Methotrimeprazine maleat salt],> 46
23,COC1=C2OC(=O)\C=C/C2=CC3=C1OC=C3 [Methoxsalen],> 46
24,COc1ccc(C(c2ccc(OC)cc2)C(Cl)(Cl)Cl)cc1 [Methoxychlor],> 46
25,CNC(C)Cc1ccccc1OC (stereo not drawn) [Methoxyphenamine],> 46

row,Compound,IC50 of cell viability [µM]
1,CN1C(=O)CC(C)(c2ccccc2)C1=O (stereo not drawn) [Methsuximide],> 46
2,COC(C)=O [Methyl acetate],> 46
3,COC(=O)c1ccccc1O [Methyl salicylate],> 46
4,C[N+]1(C)[C@@H]2CC[C@@H]1CC(OC(=O)[C@@H](CO)c1ccccc1)C2.O=[N+]([O-])[O-] (stereo partly drawn) [Methylatropine nitrate],> 46
5,Cc1cc(C(C)(C)CC(C)(C)C)ccc1OCCOCC[N+](C)(C)Cc1ccccc1 [Methylbenzethonium chloride],> 46
6,CNC(=O)OCC[N+](C)(C)C.[Cl-] [Methylcarbamylcholine chloride],> 46
7,C[C@](N)(Cc1ccc(O)c(O)c1)C(=O)O [Methyldopa sesquihydrate],> 46
8,COC(=O)c1ccc(O)cc1 [Methylparaben],> 46
9,C#CC(C)(O)CC (stereo not drawn) [Methylpentynolum],> 46
10,COC(=O)C(c1ccccc1)C1CCCCN1.[Cl-].[H+] (stereo not drawn) [Methylphenidate hydrochloride],> 46
11,CC(=O)OCC(=O)[C@@]1(O)CCC2C3C[C@H](C)C4=CC(=O)C=CC4(C)C3C(O)CC21C (stereo partly drawn) [Methylprednisolone acetate],> 46
12,"C[C@H]\1C[C@H]2[C@H]3CC[C@](O)(C(=O)CO)[C@]3(C)C[C@@H](O)[C@@H]2[C@]4(C)\C=C/C(=O)/C=C14 [Methylprednisolone, 6-alpha]",> 46
13,Cc1cc2c(cc1[S+](N)(=O)[O-])[S+](=O)([O-])CCC2 [Meticrane],> 46
14,CC(=O)Oc1c(C)cc(OCC(O)CNC(C)C)c(C)c1C (stereo not drawn) [Metipranolol],> 46
15,CN1CCC[C@H](CC2c3ccccc3Sc3ccccc32)C1 [Metixene hydrochloride],> 46
16,COc1ccc(/C=C/C(=O)c2ccc(OC)cc2OC)cc1 [Metochalcone],> 46
17,Cc1ccccc1N1C(=O)c2cc([S+](N)(=O)[O-])c(Cl)cc2NC1C (stereo not drawn) [Metolazone],> 46
18,COC1=CC=C2[N]3CCN(C)\C4=N\CCC(=C34)C2=C1 [Metralindole],> 46
19,Cc1ccccc1CNc1ncnc2c1ncn2C1OC(CO)C(O)C1O (stereo not drawn) [Metrifudil],> 46
20,CC(=O)Nc1c(I)c(C(=O)N[C@H]2[C@H](O)[C@H](O)[C@H](CO)O[C@@H]2O)c(I)c(N(C)C(C)=O)c1I [Metrizamide],> 46
21,CC(C)(C(=O)c1cccnc1)c1cccnc1 [Metyrapone],> 46
22,C[C@](N)(Cc1ccc(O)cc1)C(=O)O [Metyrosine],> 46
23,COc1ccc(C(=O)c2ccc(C)cc2)c(O)c1 [Mexenone],> 46
24,Cc1cccc(C)c1OCC(C)N.Cl (stereo not drawn) [Mexiletene hydrochloride],> 46
25,Clc1ccc(CO[C@@H](Cn2ccnc2)c2ccc(Cl)cc2Cl)c(Cl)c1 [Miconazole],> 46

row,Compound,IC50 of cell viability [µM]
1,CNC[C@@H]1CC[C@@H](N)[C@@H](O[C@H]2[C@H](O)[C@@H](O[C@H]3OC[C@](C)(O)[C@H](NC)[C@H]3O)[C@H](N)C[C@@H]2N)O1 [Micronomicin sulfate],> 46
2,CCC(=O)O[C@@H]1[C@H](C)O[C@@H](O[C@H]2[C@@H](N(C)C)[C@@H](O)[C@H](O[C@H]3[C@H](CC=O)C[C@@H](C)[C@@H](O)/C=C\C=C/C[C@@H](C)OC(=O)C[C@@H](OC(=O)CC)[C@H]3OC)O[C@H]2C)C[C@]1(C)O [Midecamycin],> 46
3,COc1ccc(OC)c([C@H](O)CNC(=O)CN)c1 [Midodrine hydrochloride],> 46
4,Cc1[nH]c(=O)c(C#N)cc1-c1ccncc1 [Milrinone],> 46
5,C\C1=C(\C=C(\C#N)C(=O)N1)C2=CC=NC=C2 [Milrinone],> 46
6,CN(C)c1ccc(O)c2c1CC1CC3C(N(C)C)C(=O)C(C(N)=O)C(=O)C3(O)C(=O)C1C2=O (stereo not drawn) [Minocycline],> 46
7,O=P(O)(O)C(O)(Cc1cnc2ccccn12)P(=O)(O)O [Minodronic acid],> 46
8,CCCCCCCCCCCCCCCCCCNC(=O)OC1CCN(C(=O)OC[C@H](COC(=O)N(Cc2cccc[n+]2CC)C(=O)c2ccccc2OC)OC)CC1 [Minopafant],> 46
9,CN1CCN2c3ncccc3Cc3ccccc3C2C1 (stereo not drawn) [Mirtazapine],> 46
10,CCCCC(C)(O)C/C=C/[C@H]1[C@H](O)CC(=O)[C@@H]1CCCCCCC(=O)OC (stereo partly drawn) [Misoprostol],> 46
11,Clc1ccc(C(c2ccccc2Cl)C(Cl)Cl)cc1 (stereo not drawn) [Mitotane],> 46
12,COc1cc2c(cc1OC)[C@@H](Cc1cc(OC)c(OC)c(OC)c1)[N@+](C)(CCCOC(=O)CC/C=C/CCC(=O)OCCC[N@+]1(C)CCc3cc(OC)c(OC)cc3[C@H]1Cc1cc(OC)c(OC)c(OC)c1)CC2 [Mivacurium],> 46
13,NC(=O)c1ncn([C@@H]2O[C@H](CO)[C@@H](O)[C@H]2O)c1O [Mizoribine],> 46
14,O=C(NCCN1CCOCC1)c1ccc(Cl)cc1 [Moclobemide],> 46
15,CCc1c(C)[nH]c2c1C(=O)[C@H](CN1CCOCC1)CC2 [Molindone hydrochloride],> 46
16,COc1ccc(C(=O)N2CCN(CC(=O)N3CCOCC3)CC2)cc1 [Molracetam],> 46
17,CCOC(=O)[N-]c1c[n+](N2CCOCC2)no1 [Molsidomine],> 46
18,C[C@H]1C[C@H]2[C@H]3CC\C4=C\C(=O)\C=C/[C@@]4(C)[C@@]3(Cl)[C@@H](O)C[C@]2(C)[C@]1(OC(=O)C5=CC=CO5)C(=O)CCl [Mometasone furoate],> 46
19,CCC1([C@@H]2O[C@@H]([C@@H]3O[C@](O)(CO)[C@@H](C)C[C@H]3C)C[C@H]2C)CC[C@H]([C@]2(C)CC[C@]3(C[C@@H](O)[C@@H](C)[C@H]([C@H](C)[C@H](OC)[C@H](C)C(=O)[O-])O3)O2)O1.[Na+] (stereo partly drawn) [Monensin sodium salt],> 46
20,CCCCC(CC)COC(=O)c1ccccc1C(=O)O (stereo not drawn) [Mono(2-ethylhexyl) phthalate],> 46
21,[H][C@]12CC[N@@]3CC=C(COC(=O)[C@](C)(O)[C@](C)(O)[C@@]([H])(C)C(=O)O1)[C@]23[H] [Monocrotaline],> 46
22,Cc1ccc(C2(O)CCN(CCCC(=O)c3ccc(F)cc3)CC2)cc1 [Moperone],> 46
23,Cc1ccsc1/C=C\C1=NCCCN1C.O=C(O)[C@@H](O)[C@@H](O)C(=O)O [Morantel tartrate],> 46
